The record followed here is patent publication US9284333B2, “Fused pyrroledicarboxamides and their use as pharmaceuticals” (SANOFI, priority 2012, dated 2016).

For this test, the target named is Human TASK-1 channels (Homo sapiens (Human), UniProt O14649). In words: Determination of the activity on the TASK-1 channel in Xenopus oocytes (two-microelectrode voltage clamp). Type of test: cell-based. The following applies: for inhibition at 5 µM: compound concentration 5 μM; for IC50: human TASK-1 expressed in Xenopus oocytes, room temperature, read-out: IC50 value for TASK-1 inhibition. The procedure:
Determination of the activity on the TASK-1 channel in Xenopus oocytes
Human TASK-1 channels were expressed in Xenopus oocytes. For this purpose, oocytes were isolated from Xenopus laevis and defoliculated. Subsequently, TASK-1-encoding RNA synthesized in vitro was injected into the oocytes. After two days of TASK-1 protein expression, TASK-1 currents were measured by two-microelectrode voltage clamp. Data were acquired and analyzed using a TEC-10cx amplifier (NPI Electronic, Tamm, Germany) connected to an ITC-16 interface (Instrutech Corp., Long Island, USA) and Pulse software (HEKA Elektronik, Lambrecht, Germany). Oocytes were clamped to −90 mV and TASK-1 mediated currents were measured during 500 ms voltage pulses to 40 mV. Oocytes were continuously superfused with ND96 buffer containing 96 mM sodium chloride, 2 mM potassium chloride, 1.8 mM calcium chloride, 1 mM magnesium chloride, 5 mM 4-(2-hydroxyethyl)-piperazine-1-ethanesulfonic acid (HEPES; pH adjusted to 7.4 with sodium hydroxide). All experiments were performed at room temperature. Test compounds were consecutively added to the bath solution at rising concentrations. Compound effects were calculated as the percentage inhibition of TASK-1 control current before compound addition. IC50 values were obtained by fitting the data to the general dose-response equation.

Sequence of Human TASK-1 channels (O14649 whole entry): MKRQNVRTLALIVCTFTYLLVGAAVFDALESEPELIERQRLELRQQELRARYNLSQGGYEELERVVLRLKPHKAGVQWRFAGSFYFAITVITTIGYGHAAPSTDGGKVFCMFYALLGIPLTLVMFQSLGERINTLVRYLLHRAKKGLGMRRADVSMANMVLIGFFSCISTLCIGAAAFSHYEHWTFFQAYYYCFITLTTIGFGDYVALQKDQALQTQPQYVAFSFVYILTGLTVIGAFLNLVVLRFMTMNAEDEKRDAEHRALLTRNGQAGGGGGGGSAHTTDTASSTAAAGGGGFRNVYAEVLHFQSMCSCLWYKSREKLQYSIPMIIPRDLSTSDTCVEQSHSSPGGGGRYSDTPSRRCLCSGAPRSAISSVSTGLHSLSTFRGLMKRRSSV

For orientation: inhibition means the relative decrease from the control value, in per cent. Low values mean a response near the control, high ones a response far below the control. The molecule `C[C@H]1CCCN1C(=O)c1cc(C(=O)NCc2c(Cl)cccc2Cl)c2n1CCOC2` [16ag, 6-((S)-2-Methyl-pyrrolidine-1-carbonyl)-3,4-dihydro-1H-pyrrolo[2,1-c][1,4]oxazine-8-carboxylic acid 2,6-dichloro-benzylamide] had an inhibition at 5 µM of 84%.

Usually IC50 stands for the midpoint of a concentration-inhibition curve. For `CC[C@@H](NC(=O)c1cc(C(=O)N2CCC[C@@H]2C)n2c1COCC2)c1cccc(C#N)n1` [16ah, 6-((S)-2-Methyl-pyrrolidine-1-carbonyl)-3,4-dihydro-1H-pyrrolo[2,1-c][1,4]oxazine-8-carboxylic acid [(R)-1-(6-cyano-pyridin-2-yl)-propyl]-amide], the IC50 came to 3200 nM.

Turning to `CC[C@@H](NC(=O)c1cc(C(=O)N2CCC[C@@H]2C)n2c1COCC2)c1ccc(OC)nc1` [16ai, 6-((S)-2-Methyl-pyrrolidine-1-carbonyl)-3,4-dihydro-1H-pyrrolo[2,1-c][1,4]oxazine-8-carboxylic acid [(R)-1-(6-methoxy-pyridin-3-yl)-propyl]-amide], the half-inhibitory concentration (IC50) came out at 1400 nM.

As to `CC[C@@H](NC(=O)c1cc(C(=O)N2CCC[C@@H]2C)n2c1COCC2)c1cccc(C#N)c1` [16aj, 6-((S)-2-Methyl-pyrrolidine-1-carbonyl)-3,4-dihydro-1H-pyrrolo[2,1-c][1,4]oxazine-8-carboxylic acid [(R)-1-(3-cyano-phenyl)-propyl]-amide], the 50% inhibitory concentration (IC50) was determined as 550 nM.

Turning to `CC[C@@H](NC(=O)c1cc(C(=O)N2CCC[C@@H]2C)n2c1COCC2)c1ccc(C#N)cc1` [16ak, 6-((S)-2-Methyl-pyrrolidine-1-carbonyl)-3,4-dihydro-1H-pyrrolo[2,1-c][1,4]oxazine-8-carboxylic acid [(R)-1-(4-cyano-phenyl)-propyl]-amide], the IC50 amounted to 1300 nM.

As for `CC(C)[C@@H](NC(=O)c1cc(C(=O)N2CCC[C@@H]2C)n2c1COCC2)c1ccc(C#N)nc1` [16am, 6-((S)-2-Methyl-pyrrolidine-1-carbonyl)-3,4-dihydro-1H-pyrrolo[2,1-c][1,4]oxazine-8-carboxylic acid [(R)-1-(6-cyano-pyridin-3-yl)-2-methyl-propyl]-amide], the IC50 was determined as 920 nM.

As for `C[C@H]1CCCN1C(=O)c1cc(C(=O)NCc2ccccc2Cl)c2n1CCOC2` [16an, 6-((S)-2-Methyl-pyrrolidine-1-carbonyl)-3,4-dihydro-1H-pyrrolo[2,1-c][1,4]oxazine-8-carboxylic acid 2-chloro-benzylamide], 5 µM produced 81% inhibition.

With `CC[C@@H](NC(=O)c1cc(C(=O)N2CCC[C@@H]2C)n2c1COCC2)c1ncccc1OC` [16ao, 6-((S)-2-Methyl-pyrrolidine-1-carbonyl)-3,4-dihydro-1H-pyrrolo[2,1-c][1,4]oxazine-8-carboxylic acid [(R)-1-(3-methoxy-pyridin-2-yl)-propyl]-amide], 5 µM produced 83% inhibition.

Take `CC[C@@H](NC(=O)c1cc(C(=O)N2CCC[C@@H]2C)n2c1COCC2)c1cccc(C(F)(F)F)n1` [16ap]: the 50% inhibitory concentration (IC50) came to 76 nM.

For the molecule `CC(C)[C@@H](NC(=O)c1cc(C(=O)N2CCC[C@@H]2C)n2c1COCC2)c1ccc(C(F)(F)F)nc1` [16aq, 6-((S)-2-Methyl-pyrrolidine-1-carbonyl)-3,4-dihydro-1H-pyrrolo[2,1-c][1,4]oxazine-8-carboxylic acid [(R)-2-methyl-1-(6-trifluoromethyl-pyridin-3-yl)-propyl]-amide], the 50% inhibitory concentration (IC50) came to 460 nM.

Consider `CC[C@@H](NC(=O)c1cc(C(=O)N2CCC[C@@H]2C)n2c1COCC2)c1ccc(Cl)nc1` [16ar, 6-((S)-2-Methyl-pyrrolidine-1-carbonyl)-3,4-dihydro-1H-pyrrolo[2,1-c][1,4]oxazine-8-carboxylic acid [(R)-1-(6-chloro-pyridin-3-yl)-propyl]-amide], for which the IC50 came to 440 nM.

Regarding `C[C@@H](NC(=O)c1cc(C(=O)N2CCC[C@@H]2C)n2c1COCC2)c1ccc(Cl)cc1` [16as, 6-((S)-2-Methyl-pyrrolidine-1-carbonyl)-3,4-dihydro-1H-pyrrolo[2,1-c][1,4]oxazine-8-carboxylic acid [(R)-1-(4-chloro-phenyl)-ethyl]-amide], at 5 µM the inhibition was 87%.

Regarding `CC[C@@H](NC(=O)c1cc(C(=O)N2CCC[C@@H]2C)n2c1COCC2)c1ccc(OC)cc1` [16at, 6-((S)-2-Methyl-pyrrolidine-1-carbonyl)-3,4-dihydro-1H-pyrrolo[2,1-c][1,4]oxazine-8-carboxylic acid [(R)-1-(4-methoxy-phenyl)-propyl]-amide], the IC50 stood at 400 nM.

For `CC[C@@H](NC(=O)c1cc(C(=O)N2CCC[C@@H]2C)n2c1COCC2)c1ccc(C(F)F)cc1` [16au, 6-((S)-2-Methyl-pyrrolidine-1-carbonyl)-3,4-dihydro-1H-pyrrolo[2,1-c][1,4]oxazine-8-carboxylic acid [(R)-1-(4-difluoromethyl-phenyl)-propyl]-amide], the IC50 came to 340 nM.

As to `CC[C@@H](NC(=O)c1cc(C(=O)N2CCC[C@@H]2C)n2c1COCC2)c1ccc(OC(F)(F)F)cc1` [16aw, 6-((S)-Methyl-pyrrolidine-1-carbonyl)3,4-dihydro-1H-pyrrolo[2,1-c][1,4]oxazine-8-carboxylic acid [(R)-1-(4-trifluoromethoxy-phenyl)-propyl]-amide], the concentration for half-maximal inhibition (IC50) was determined as 280 nM.

On to `CC[C@@H](NC(=O)c1cc(C(=O)N2CCC[C@@H]2C)n2c1COCC2)c1ccc(SC(F)(F)F)cc1` [16ax, 6-((S)-2-Methyl-pyrrolidine-1-carbonyl)-3,4-dihydro-1H-pyrrolo[2,1-c][1,4]oxazine-8-carboxylic acid [(R)-1-(4-trifluoromethylsulfanyl-phenyl)-propyl]-amide], for which the IC50 was 350 nM.

Regarding `CC[C@@H](NC(=O)c1cc(C(=O)N2CCC[C@@H]2C)n2c1COCC2)c1ccc(C#N)cc1F` [16ay, 6-((S)-2-Methyl-pyrrolidine-1-carbonyl)-3,4-dihydro-1H-pyrrolo[2,1-c][1,4]oxazine-8-carboxylic acid [(R)-1-(4-cyano-2-fluoro-phenyl)-propyl]-amide], the IC50 is 910 nM.

Take `CC[C@@H](NC(=O)c1cc(C(=O)N2CCC[C@@H]2C)n2c1COCC2)c1ccc(F)cc1` [16az, 6-((S)-2-Methyl-pyrrolidine-1-carbonyl)-3,4-dihydro-1H-pyrrolo[2,1-c][1,4]oxazine-8-carboxylic acid [(R)-1-(4-fluoro-phenyl)-propyl]-amide]: the half-maximal inhibitory concentration (IC50) stood at 120 nM.

Consider `CC[C@@H](NC(=O)c1cc(C(=O)N2CCC[C@@H]2C)n2c1COCC2)c1cnc(OC)c(Cl)c1` [16b, 6-((S)-2-Methyl-pyrrolidine-1-carbonyl)-3,4-dihydro-1H-pyrrolo[2,1-c][1,4]oxazine-8-carboxylic acid [(R)-1-(5-chloro-6-methoxy-pyridin-3-yl)-propyl]-amide], for which the IC50 came out at 61 nM.

Consider `CC[C@@H](NC(=O)c1cc(C(=O)N2CCC[C@@H]2C)n2c1COCC2)c1c(F)cc(C#N)cc1F` [16ba, 6-((S)-2-Methyl-pyrrolidine-1-carbonyl)-3,4-dihydro-1H-pyrrolo[2,1-c][1,4]oxazine-8-carboxylic acid [(R)-1-(4-cyano-2,6-difluoro-phenyl)-propyl]-amide], for which the IC50 worked out at 140 nM.

Turning to `CC[C@@H](NC(=O)c1cc(C(=O)N2CCC[C@@H]2C)n2c1COCC2)c1ccc(C#N)cc1Cl` [16bb, 6-((S)-2-Methyl-pyrrolidine-1-carbonyl)-3,4-dihydro-1H-pyrrolo[2,1-c][1,4]oxazine-8-carboxylic acid [(R)-1-(2-chloro-4-cyano-phenyl)-propyl]-amide], the 50% inhibitory concentration (IC50) stood at 790 nM.

In the case of `CCC(NC(=O)c1cc(C(=O)N2CCC[C@@H]2C)n2c1COCC2)c1ccc(C(C)(F)F)cc1` (stereo partly drawn) [16bc, 6-((S)-2-Methyl-pyrrolidine-1-carbonyl)-3,4-dihydro-1H-pyrrolo[2,1-c][1,4]oxazine-8-carboxylic acid {1-[4-(1,1-difluoro-ethyl)-phenyl]-propyl}-amide], the IC50 came to 550 nM.

As for `CC[C@@H](NC(=O)c1cc(C(=O)N2CCC[C@@H]2C)n2c1COCC2)c1ncccn1` [16bd, 6-((S)-2-Methyl-pyrrolidine-1-carbonyl)-3,4-dihydro-1H-pyrrolo[2,1-c][1,4]oxazine-8-carboxylic acid ((R)-1-pyrimidin-2-yl-propyl)-amide], the inhibition at 5 µM was 47%.

Molecule `CC[C@@H](NC(=O)c1cc(C(=O)N2CCC[C@@H]2C)n2c1COCC2)c1ccc(C)cc1` [16be, 6-((S)-2-Methyl-pyrrolidine-1-carbonyl)-3,4-dihydro-1H-pyrrolo[2,1-c][1,4]oxazine-8-carboxylic acid ((R)-1-p-tolyl-propyl)-amide] returned an inhibition at 5 µM of 85%.

Regarding `CC[C@@H](NC(=O)c1cc(C(=O)N2CCC[C@@H]2C)n2c1COCC2)c1ccc(Br)s1` [16bg, 6-((S)-2-methyl-pyrrolidine-1-carbonyl)-3,4-dihydro-1H-pyrrolo[2,1-c][1,4]oxazine-8-carboxylic acid [(R)-1-(5-bromo-thiophen-2-yl)-propyl]-amide], the half-inhibitory concentration (IC50) was found to be 280 nM.

`CC[C@@H](NC(=O)c1cc(C(=O)N2CCC[C@@H]2C)n2c1COCC2)c1ncc(C(F)(F)F)cn1` [16bh, 6-((S)-2-Methyl-pyrrolidine-1-carbonyl)-3,4-dihydro-1H-pyrrolo[2,1-c][1,4]oxazine-8-carboxylic acid [(R)-1-(5-trifluoromethyl-pyrimidin-2-yl)-propyl]-amide]: the IC50 is 920 nM.
